The target of assay [1] is T1, BCDIN3D (Homo sapiens, UniProt Q7Z5W3).
T1 sequence (Q7Z5W3 1-292): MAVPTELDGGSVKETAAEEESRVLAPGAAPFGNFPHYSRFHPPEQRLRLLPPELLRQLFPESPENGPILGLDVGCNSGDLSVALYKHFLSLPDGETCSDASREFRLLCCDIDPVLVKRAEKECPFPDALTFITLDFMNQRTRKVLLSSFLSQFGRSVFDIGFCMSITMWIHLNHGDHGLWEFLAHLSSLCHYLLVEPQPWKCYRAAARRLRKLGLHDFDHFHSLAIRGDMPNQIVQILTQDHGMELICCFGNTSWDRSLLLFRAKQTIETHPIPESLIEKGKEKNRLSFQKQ
Description: BCDIN3D IC50 RFMS (RapidFire) assay with mini-helix. The following applies: mini-helix substrate 0.2 μM, SAM 6 μM, 25 nM enzyme. The assay is classed as biochemical. The method, boiled down: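 SAH formation was measured by RapidFire mass spectrometry with D4- and 13C10-SAH internal standards after TCA quench. Substrates 6 μM SAM and 0.2 μM mini-helix reacted 1 h at 37 °C with 25 nM enzyme, which had been preincubated 10 min with compound (1% DMSO) in Tris pH 8.0 buffer with DTT, EDTA, BSA.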

The target in assay [2] is T1, BCDIN3D. Description: BCDIN3D InCellPulse thermal stability assay in transfected A549 cells. The assay is classed as cell-based. The following applies: transiently transfected A549 cells, heat shock 58° C. 15 min. The method, boiled down:
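Thermal stabilisation read-out: after a 15 min 58 °C heat shock, ePL-tagged BCDIN3D in transiently transfected A549 cells (1500/well) was quantified by enzyme-fragment complementation luminescence. Compounds were pre-incubated with cells 1 h at 37 °C, 0.6% DMSO final.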

Structures are written as SMILES.

Consider 22 molecules from US20220370453A1 (Storm Therapeutics Ltd, priority 2019, published 2022).

The term IC50 denotes the concentration that inhibits the measured activity by half. Read a high IC50 as weaker potency.

As to `CC(C)Nc1nc(NCC(N)c2ccccc2)nc2c1cnn2C` (centres unmarked) [Compound 4.46, 6-N-(2-amino-2-phenylethyl)-1-methyl-4-N-propan-2-ylpyrazolo[3,4-d]pyrimidine-4,6-diamine], the results for the IC50 against BCDIN3D [1] and against BCDIN3D [2] were 501 nM and 1130 nM, respectively.
The corresponding values for `CC(C)Nc1nc(NC[C@H](N)c2ccccc2)nc2c1cnn2C` [Compound 4.47, 6-N-[(2R)-2-amino-2-phenylethyl]-1-methyl-4-N-propan-2-ylpyrazolo[3,4-d]pyrimidine-4,6-diamine] are 253 nM and 667 nM.
The corresponding values for `Cn1ncc2c(N3CCCC3)nc(NCC(N)c3ccccc3)nc21` (centres unmarked) [Compound 4.48, N′-(1-methyl-4-pyrrolidin-1-ylpyrazolo[3,4-d]pyrimidin-6-yl)-1-phenylethane-1,2-diamine] are 3860 nM and 7400 nM.
For `COCCNc1nc(NCC(N)c2ccccc2)nc2c1cnn2C` (centres unmarked) [Compound 4.49, 6-N-(2-amino-2-phenylethyl)-4-N-(2-methoxyethyl)-1-methylpyrazolo[3,4-d]pyrimidine-4,6-diamine], the results for the IC50 on BCDIN3D [1] and against BCDIN3D [2] were 3390 nM and 6060 nM, respectively.
On the same counts, the results for `Cn1ncc2c(NC(C)(C)C)nc(NCC(N)c3ccccc3)nc21` (centres unmarked) [Compound 4.50, 6-N-(2-amino-2-phenylethyl)-4-N-tert-butyl-1-methylpyrazolo[3,4-d]pyrimidine-4,6-diamine] are 196 nM and 871 nM.
The corresponding values for `Cn1ncc2c(NC(C)(C)C)nc(NCC(C)(N)c3ccccc3)nc21` (centres unmarked) [Compound 4.51, N6-(2-amino-2-phenyl-propyl)-N4-tert-butyl-1-methyl-pyrazolo[3,4-d]pyrimidine-4,6-diamine] are 581 nM and 1810 nM.
The corresponding values for `[2H]C([2H])([2H])n1ncc2c(NC(C)(C)C)nc(NCC(N)c3ccccc3)nc21` (centres unmarked) [Compound 4.52, N6-(2-amino-2-phenyl-ethyl)-N4-tert-butyl-1-(trideuteriomethyl)pyrazolo[3,4-d]pyrimidine-4,6-diamine] are 169 nM and 536 nM.
With `Cn1ncc2c(NC(C)(C)C)nc(NC[C@H](N)c3ccccc3)nc21` [Compound 4.53, 6-N-[(2R)-2-amino-2-phenylethyl]-4-N-tert-butyl-1-methylpyrazolo[3,4-d]pyrimidine-4,6-diamine], the IC50 came out at 118 nM at BCDIN3D [1] and 282 nM against BCDIN3D [2].
As for `Cn1ncc2c(NC(C)(C)C)nc(NC[C@@H](N)c3ccccc3)nc21` [Compound 4.54, 6-N-[(2S)-2-amino-2-phenylethyl]-4-N-tert-butyl-1-methylpyrazolo[3,4-d]pyrimidine-4,6-diamine], the IC50 against BCDIN3D [1] was 1970 nM; against BCDIN3D [2], 3110 nM.
As for `[2H]C([2H])([2H])n1ncc2c(NC(C)(C)C)nc(NC[C@H](N)c3ccccc3)nc21` [Compound 4.55, N6-[(2R)-2-amino-2-phenyl-ethyl]-N4-tert-butyl-1-(trideuteriomethyl)pyrazolo[3,4-d]pyrimidine-4,6-diamine], the values for the half-maximal inhibitory concentration (IC50) against BCDIN3D [1] and against BCDIN3D [2] were 133 nM and 152 nM, respectively.
On the same counts, the results for `Cn1ncc2c(NCC3CC3)nc(NCC(N)c3ccccc3)nc21` (centres unmarked) [Compound 4.56, 6-N-(2-amino-2-phenylethyl)-4-N-(cyclopropylmethyl)-1-methylpyrazolo[3,4-d]pyrimidine-4,6-diamine] are 3470 nM and 7270 nM.
On the same counts, the results for `Cn1ncc2c(NC(C3CC3)C3CC3)nc(NCC(N)c3ccccc3)nc21` (centres unmarked) [Compound 4.57, N6-(2-amino-2-phenyl-ethyl)-N4-(dicyclopropylmethyl)-1-methyl-pyrazolo[3,4-d]pyrimidine-4,6-diamine] are 6450 nM and 2720 nM.
In the case of `CC1CC1CNc1nc(NC[C@H](N)c2ccccc2)nc2c1cnn2C` (stereo partly drawn) [Compound 4.58, N6-[(2R)-2-amino-2-phenyl-ethyl]-1-methyl-N4-[(2-methylcyclopropyl)methyl]pyrazolo[3,4-d]pyrimidine-4,6-diamine], the results for the IC50 against BCDIN3D [1] and on BCDIN3D [2] were 70.4 nM and 184 nM, respectively.
With `Cn1ncc2c(NC(C)(C)C3CC3)nc(NC[C@H](N)c3ccccc3)nc21` [Compound 4.59, N6-[(2R)-2-amino-2-phenyl-ethyl]-N4-(1-cyclopropyl-1-methyl-ethyl)-1-methyl-pyrazolo[3,4-d]pyrimidine-4,6-diamine], the IC50 against BCDIN3D [1] was found to be 109 nM; at BCDIN3D [2] it was 77.5 nM.
The corresponding values for `Cn1ncc2c(NCC3CC34CC4)nc(NC[C@H](N)c3ccccc3)nc21` (stereo partly drawn) [Compound 4.60, N6-[(2R)-2-amino-2-phenyl-ethyl]-1-methyl-N4-(spiro[2.2]pentan-2-ylmethyl)pyrazolo[3,4-d]pyrimidine-4,6-diamine] are 6.1 nM and 44.4 nM.
Turning to `Cn1ncc2c(NCC3CC3(F)F)nc(NC[C@H](N)c3ccccc3)nc21` (stereo partly drawn) [Compound 4.61, N6-[(2R)-2-amino-2-phenyl-ethyl]-N4-[(2,2-difluorocyclopropyl)methyl]-1-methyl-pyrazolo[3,4-d]pyrimidine-4,6-diamine], the IC50 was found to be 266 nM on BCDIN3D [1] and 378 nM against BCDIN3D [2].
On the same counts, the results for `Cn1ncc2c(NCC3CC3(C)C)nc(NC[C@H](N)c3ccccc3)nc21` (stereo partly drawn) [Compound 4.62, N6-[(2R)-2-amino-2-phenyl-ethyl]-N4-[(2,2-dimethylcyclopropyl)methyl]-1-methyl-pyrazolo[3,4-d]pyrimidine-4,6-diamine] are 6.1 nM and 112 nM.
On the same counts, the results for `Cn1ncc2c(NC34CC(C#N)(C3)C4)nc(NCC(N)c3ccccc3)nc21` (centres unmarked) [Compound 4.64, 3-[[6-[(2-amino-2-phenylethyl)amino]-1-methylpyrazolo[3,4-d]pyrimidin-4-yl]amino]bicyclo[1.1.1]pentane-1-carbonitrile] are 202 nM and 949 nM.
The corresponding values for `Cn1ncc2c(NC34CC(F)(C3)C4)nc(NCC(N)c3ccccc3)nc21` (centres unmarked) [Compound 4.65, N6-(2-amino-2-phenylethyl)-N4-{3-fluorobicyclo[1.1.1]pentan-1-yl}-1-methyl-1H-pyrazolo[3,4-d]pyrimidine-4,6-diamine] are 230 nM and 616 nM.
`Cn1ncc2c(NC34CC(C3)C4)nc(NC[C@H](N)c3ccccc3)nc21` [Compound 4.66, N6-[(2R)-2-amino-2-phenyl-ethyl]-N4-(3-bicyclo[1.1.1]pentanyl)-1-methyl-pyrazolo[3,4-d]pyrimidine-4,6-diamine]: the half-inhibitory concentration (IC50) against BCDIN3D [1] is 128 nM; against BCDIN3D [2], 137 nM.
On the same counts, the results for `Cn1ncc2c(NC34CC(F)(C3)C4)nc(NC[C@H](N)c3ccccc3)nc21` [Compound 4.67, N6-[(2R)-2-amino-2-phenyl-ethyl]-N4-(3-fluoro-1-bicyclo[1.1.1]pentanyl)-1-methyl-pyrazolo[3,4-d]pyrimidine-4,6-diamine] are 179 nM and 168 nM.
On the same counts, the results for `Cn1ncc2c(NC3CCC(F)(F)CC3)nc(NCC(N)c3ccccc3)nc21` (centres unmarked) [Compound 4.68, 6-N-(2-amino-2-phenylethyl)-4-N-(4,4-difluorocyclohexyl)-1-methylpyrazolo[3,4-d]pyrimidine-4,6-diamine] are 1140 nM and 3240 nM.
